Ten molecules from ChEMBL document CHEMBL1201862, “PubChem BioAssay data set” (2004) can be followed below.

Holding throughout (test): NCI-60 cell line screen, 48 h
The test system of test [1] is A498.
Test [2] deals with A549.
For test [3], the system named is COLO 205.
In test [4] the test system is HCC 2998.
The test system of test [5] is HL-60.
Test [6] relates to HT-29.
The subject of test [7] is Malme-3M.
Test [8] relates to NCI-H460.
Test [9] deals with NCI-H522.
Test [10] concerns NCI/ADR-RES.
Test [11] has as its system RPMI-8226.
Test [12] concerns SK-MEL-2.
Test [13] relates to SK-MEL-5.
For test [14], the system named is SN12C.
In test [15] the test system is SNB-75.
For test [16], the system named is SR.
For test [17], the system named is U-251.
Test [18] relates to UACC-62.
The test system of test [19] is UO-31.
Test [20] has as its system SF-539.

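Results reflect a 48-hour exposure of cells in 96-well plates to compound at five concentrations. Here, GI50 denotes the concentration required for 50% inhibition of growth.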 The source made the active and inactive calls. Cut-off read from the data, not from the text of the source: active = GI50 up to about 1.1 µM and inactive = higher.

For the molecule `Cn1cnc([N+](=O)[O-])c1SCC(=O)O`, the GI50 in [1], in test [2], in test [3], in test [4], in [5] and in [6] was > 100 µM (inactive) in each case. Moreover, the GI50 in test [7], in test [8], in test [9], in test [10], in [11] and in test [12] was > 100 µM (inactive) throughout. Also, the GI50 in test [13], in test [14], in [15], in [16], in test [17] and in [18] was > 100 µM (inactive) throughout. Besides, in [19], the GI50 was > 100 µM (inactive).
`CN(C)CCCN1c2ccccc2Sc2ccc3ccccc3c21`: the GI50 was 5.71 µM (inactive) in test [1]; 13.2 µM (inactive) in [2]; 4.56 µM (inactive) in test [3]; 1.53 µM (inactive) in test [4]; < 0.01 µM (active) in test [5]; 3.52 µM (inactive) in [6]. Also, the GI50 in test [7] was 6.49 µM (inactive); in test [8] it was 2.79 µM (inactive); in test [9], 7.94 µM (inactive); in test [10], 7.82 µM (inactive); in test [11], 2.48 µM (inactive); in [20], 16.1 µM (inactive). Moreover, the GI50 is 5.79 µM (inactive) in test [12]; 4.17 µM (inactive) in test [13]; 9.06 µM (inactive) in [14]; 1.09 µM (active) in [16]; 7.23 µM (inactive) in test [17]; 4.61 µM (inactive) in test [18]. Further, the GI50 in test [19] is 4.36 µM (inactive).
With `O=C(O)c1cc(CC2Cc3cc4c(cc3C2=O)CCC4)cc2c1CCC2` (configuration not stated), the GI50 in test [1], in [2], in [3], in [4], in [5] and in test [6] was > 100 µM (inactive) in each case. In addition, the GI50 was > 100 µM (inactive) in test [7]; > 100 µM (inactive) in test [8]; 90.2 µM (inactive) in test [9]; > 100 µM (inactive) in [10]; 70.8 µM (inactive) in [11]; > 100 µM (inactive) in [20]. Further, the GI50 in test [12] was > 100 µM (inactive); in test [14] it was > 100 µM (inactive); in test [15] it was 35.6 µM (inactive); in test [16], 67.1 µM (inactive); in [17] it was 82.2 µM (inactive); in test [18], 43.2 µM (inactive). Also, the GI50 in test [19] was > 100 µM (inactive).
On to `COC(=O)c1cc2cc3c(c(O)c2c(=O)o1)O[C@@]1(Oc2c(O)c4c(c(O)c2[C@H]1OC1CC(OC)C(O)C(C)O1)C(=O)C=C(OC)C4=O)[C@H](O)C3` (some centres not stated), for which the GI50 was 0.789 µM (active) in test [1]; 1.05 µM (active) in [2]; 1.51 µM (inactive) in test [3]; 1.2 µM (inactive) in [4]; 0.719 µM (active) in test [5]; 1.14 µM (inactive) in [6]. Moreover, the GI50 is 1.28 µM (inactive) in test [7]; 0.685 µM (active) in test [8]; 2.09 µM (inactive) in [9]; 4.62 µM (inactive) in test [10]; 0.547 µM (active) in test [11]; 0.908 µM (active) in [20]. For the same molecule, the GI50 is 1.53 µM (inactive) in test [12]; 0.966 µM (active) in test [13]; 1.3 µM (inactive) in test [14]; 0.652 µM (active) in test [15]; 0.458 µM (active) in test [16]; 0.785 µM (active) in [17]. Further, the GI50 in test [18] was 0.55 µM (active); in test [19], 1.37 µM (inactive).
Regarding `O=C(O)c1c(CC(Cc2ccc3c(c2)CCCC3)C(=O)O)ccc2c1CCCC2` (configuration not stated), the GI50 in test [1], in test [2], in test [3], in test [4], in test [5] and in test [6] was > 100 µM (inactive) in each case. The GI50 in test [7], in test [8], in test [9], in test [10], in test [11] and in [20] was > 100 µM (inactive) each time. For the same molecule, the GI50 in test [12], in [13], in test [14], in test [15], in test [16] and in test [17] was > 100 µM (inactive) each time. Also, the GI50 in test [18] and in [19] was > 100 µM (inactive) throughout.
Consider `O=[N+]([O-])/C(C(Cl)=C(Cl)Cl)=C(/Nc1ccccc1)SCc1ccccc1`, for which the GI50 in test [1] is 25.9 µM (inactive); in test [2], 17.8 µM (inactive); in [3], 21.9 µM (inactive); in [4], 24.3 µM (inactive); in test [5] it was 19.1 µM (inactive); in [6], 29.6 µM (inactive). For the same molecule, the GI50 in test [7] was 16.4 µM (inactive); in test [8], 19.8 µM (inactive); in test [9], 23.3 µM (inactive); in [10], 16.2 µM (inactive); in test [11] it was 14.1 µM (inactive); in test [20], 23.4 µM (inactive). Besides, the GI50 was 19.4 µM (inactive) in test [12]; 21.6 µM (inactive) in test [13]; 22.4 µM (inactive) in test [14]; 22.3 µM (inactive) in [16]; 20.1 µM (inactive) in test [17]; 20 µM (inactive) in [18]. Moreover, the GI50 in test [19] is 20.8 µM (inactive).
`O=C1CSc2nnc(CCCCCCCCc3nnc4n3NC(=O)CS4)n2N1`: the GI50 in test [1] is > 100 µM (inactive); in [2] it was > 100 µM (inactive); in [3], > 100 µM (inactive); in [4], > 100 µM (inactive); in test [5], 31.5 µM (inactive); in test [6], 23.1 µM (inactive). Also, the GI50 in [7] is 31.9 µM (inactive); in [8], > 100 µM (inactive); in test [9], 26.7 µM (inactive); in [10] it was > 100 µM (inactive); in test [11], 28.6 µM (inactive); in test [20] it was 48.9 µM (inactive). Further, the GI50 in test [12] is > 100 µM (inactive); in test [14], > 100 µM (inactive); in test [15], 32.1 µM (inactive); in test [16], 30.8 µM (inactive); in [17], 35.4 µM (inactive); in test [18], > 100 µM (inactive). Further, in test [19], the GI50 is > 100 µM (inactive).
`C[C@]12CC[C@@H]3c4cc(I)c(O)cc4CC[C@H]3[C@@H]1CC[C@@H]2O`: the GI50 in test [1] was 8.43 µM (inactive); in [2], 6.32 µM (inactive); in test [3], 18.5 µM (inactive); in test [4], 8.81 µM (inactive); in [5] it was 5.65 µM (inactive); in test [6] it was 17.3 µM (inactive). For the same molecule, the GI50 in test [7] is 9.89 µM (inactive); in test [8], 3.64 µM (inactive); in test [9], 3.72 µM (inactive); in test [10], 6.55 µM (inactive); in test [11], 7.74 µM (inactive); in [12], 3.02 µM (inactive). The GI50 in test [13] was 3.18 µM (inactive); in test [15] it was 3.17 µM (inactive); in [16], 3.1 µM (inactive); in [17], 4.48 µM (inactive); in test [19], 5.74 µM (inactive).
With `NCCCCNCCCN1CC1`, the GI50 is 0.319 µM (active) in [1]; 4.94 µM (inactive) in test [2]; 0.871 µM (active) in test [3]; 5.73 µM (inactive) in [4]; 0.436 µM (active) in [5]; 4.55 µM (inactive) in [6]. Besides, the GI50 was 1.77 µM (inactive) in test [7]; 5.5 µM (inactive) in test [8]; 2.47 µM (inactive) in [9]; 1.16 µM (inactive) in test [10]; 8 µM (inactive) in test [11]; 0.628 µM (active) in test [20]. The GI50 in test [12] is 0.752 µM (active); in [13], 1.71 µM (inactive); in test [14], 1.19 µM (inactive); in test [15] it was 0.246 µM (active); in [16], 2.29 µM (inactive); in test [17] it was 1.3 µM (inactive). Also, the GI50 in [18] was 5.18 µM (inactive); in test [19] it was 1.77 µM (inactive).
As for `CC1=CC(=O)[C@@H](O)[C@]2(C)[C@H]3[C@@]4(O)OC[C@@]35[C@@H](C[C@@H]12)OC(=O)C(OC(=O)CC1=CCCC1)[C@H]5[C@@H](C)[C@H]4O` (some centres not stated), the GI50 in [1] is 0.429 µM (active); in test [2] it was 0.28 µM (active); in test [3], 0.24 µM (active); in test [4] it was 0.04 µM (active); in test [5], < 0.0168 µM (active); in test [6] it was 0.0238 µM (active). Moreover, the GI50 in test [7] was 0.0164 µM (active); in test [8], 0.023 µM (active); in test [9], 0.0178 µM (active); in [10], 0.136 µM (active); in test [11] it was < 0.0124 µM (active); in test [20], 0.0169 µM (active). Further, the GI50 was 0.0547 µM (active) in test [12]; 0.0167 µM (active) in test [13]; 0.0481 µM (active) in [14]; 0.0423 µM (active) in [15]; 0.0168 µM (active) in test [16]; 0.0158 µM (active) in [17]. The GI50 was 0.0383 µM (active) in test [18] and 0.0668 µM (active) in [19].
